In ChEMBL document CHEMBL1833863, “Synthesis, biological evaluation and molecular docking studies of 1,3,4-thiadiazole derivatives containing 1,4-benzodioxan as potential antitumor agents” (Bioorg Med Chem Lett, 2011):
pEC50: −log10 of the molar value. ≈ marks a conversion by molar mass, not a printed value. Calls of active or inactive are those of the source. No cut-off for these calls is given here.

Assays:
HeLa = assay: Antiproliferative activity against human HeLa cells after 48 hrs by MTT assay; type: functional, cell-based
BGC-823 = assay: Antiproliferative activity against human BGC823 cells after 48 hrs by MTT assay; type: functional, cell-based; conditions: BGC-823, 48 h
[1] = Antiproliferative activity against human SW1116 cells after 48 hrs by MTT assay; type: functional, cell-based; conditions: SW 1116, 48 h
Focal adhesion kinase 1 [2] = target: T1, Focal adhesion kinase 1 (Homo sapiens, UniProt Q05397); assay: Inhibition of human recombinant full-length FAK assessed as remaining ATP after 4 hrs by Kinase-Glo-luminescence assay
Target sequence in this assay (Q05397 whole entry): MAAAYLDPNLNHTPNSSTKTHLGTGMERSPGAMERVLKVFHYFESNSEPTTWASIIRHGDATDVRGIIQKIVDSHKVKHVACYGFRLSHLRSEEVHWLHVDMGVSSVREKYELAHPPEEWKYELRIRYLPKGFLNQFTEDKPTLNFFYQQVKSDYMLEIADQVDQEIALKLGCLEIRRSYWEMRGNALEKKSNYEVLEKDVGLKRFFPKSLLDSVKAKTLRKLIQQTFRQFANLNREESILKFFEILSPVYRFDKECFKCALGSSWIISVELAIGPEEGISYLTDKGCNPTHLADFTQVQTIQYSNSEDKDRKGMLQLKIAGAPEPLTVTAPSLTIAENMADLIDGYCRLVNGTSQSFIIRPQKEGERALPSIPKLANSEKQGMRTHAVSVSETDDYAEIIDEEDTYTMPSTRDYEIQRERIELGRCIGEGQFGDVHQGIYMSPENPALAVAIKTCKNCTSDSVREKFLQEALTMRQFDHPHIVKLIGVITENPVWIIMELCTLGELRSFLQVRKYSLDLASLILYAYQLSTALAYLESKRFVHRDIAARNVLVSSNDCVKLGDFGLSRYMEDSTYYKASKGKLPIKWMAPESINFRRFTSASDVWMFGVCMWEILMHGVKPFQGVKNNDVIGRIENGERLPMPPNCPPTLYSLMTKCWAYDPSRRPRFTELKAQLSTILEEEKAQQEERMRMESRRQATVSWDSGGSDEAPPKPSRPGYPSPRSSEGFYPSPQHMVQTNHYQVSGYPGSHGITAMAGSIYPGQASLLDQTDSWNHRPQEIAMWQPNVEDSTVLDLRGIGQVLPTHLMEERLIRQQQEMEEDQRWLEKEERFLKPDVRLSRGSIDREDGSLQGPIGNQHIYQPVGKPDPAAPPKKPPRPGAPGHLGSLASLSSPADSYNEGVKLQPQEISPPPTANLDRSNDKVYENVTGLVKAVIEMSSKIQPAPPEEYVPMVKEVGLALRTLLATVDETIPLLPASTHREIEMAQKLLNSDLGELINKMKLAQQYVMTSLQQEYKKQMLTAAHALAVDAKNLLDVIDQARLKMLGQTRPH

HepG2 [3] = assay: Antiproliferative activity against human HepG2 cells after 48 hrs by MTT assay; type: functional, cell-based; conditions: HepG2, 48 h
HepG2 [4] = assay: Induction of apoptosis in human HepG2 cells assessed as early apoptotic cells at 4 uM after 24 hrs using Annexin V-FITC and propidium iodide staining by flow cytometry (reference value: 0.02 %); type: functional
HepG2 [5] = assay: Induction of apoptosis in human HepG2 cells assessed as early apoptotic cells at 0.5 uM after 24 hrs using Annexin V-FITC and propidium iodide staining by flow cytometry (reference value: 0.02 %); type: functional
HepG2 [6] = assay: Induction of apoptosis in human HepG2 cells assessed as necrotic cells at 0.5 uM after 24 hrs using Annexin V-FITC and propidium iodide staining by flow cytometry (reference value: 2.82 %); type: functional
HepG2 [7] = assay: Induction of apoptosis in human HepG2 cells assessed as late apoptotic cells at 1 uM after 24 hrs using Annexin V-FITC and propidium iodide staining by flow cytometry (reference value: 0.90 %); type: functional
HepG2 [8] = assay: Induction of apoptosis in human HepG2 cells assessed as late apoptotic cells at 4 uM after 24 hrs using Annexin V-FITC and propidium iodide staining by flow cytometry (reference value: 0.90 %); type: functional
HepG2 [9] = assay: Induction of apoptosis in human HepG2 cells assessed as early apoptotic cells at 2 uM after 24 hrs using Annexin V-FITC and propidium iodide staining by flow cytometry (reference value: 0.02 %); type: functional
HepG2 [10] = assay: Induction of apoptosis in human HepG2 cells assessed as viable cells at 4 uM after 24 hrs using Annexin V-FITC and propidium iodide staining by flow cytometry (reference value: 96.26 %); type: functional; conditions: HepG2, 24 h, read-out: Activity
HepG2 [11] = assay: Induction of apoptosis in human HepG2 cells assessed as late apoptotic cells at 2 uM after 24 hrs using Annexin V-FITC and propidium iodide staining by flow cytometry (reference value: 0.90 %); type: functional
HepG2 [12] = assay: Induction of apoptosis in human HepG2 cells assessed as late apoptotic cells at 0.5 uM after 24 hrs using Annexin V-FITC and propidium iodide staining by flow cytometry (reference value: 0.90 %); type: functional
HepG2 [13] = assay: Induction of apoptosis in human HepG2 cells assessed as viable cells at 1 uM after 24 hrs using Annexin V-FITC and propidium iodide staining by flow cytometry (reference value: 96.26 %); type: functional; conditions: HepG2, 24 h, read-out: Activity
HepG2 [14] = assay: Induction of apoptosis in human HepG2 cells assessed as cleaved PARP level at 0.74 to 20 […] uM by Western blotting; type: functional, cell-based
HepG2 [15] = assay: Induction of apoptosis in human HepG2 cells assessed as necrotic cells at 4 uM after 24 hrs using Annexin V-FITC and propidium iodide staining by flow cytometry (reference value: 2.82 %); type: functional
HepG2 [16] = assay: Induction of apoptosis in human HepG2 cells assessed as necrotic cells at 2 uM after 24 hrs using Annexin V-FITC and propidium iodide staining by flow cytometry (reference value: 2.82 %); type: functional
HepG2 [17] = assay: Induction of apoptosis in human HepG2 cells assessed as viable cells at 0.5 uM after 24 hrs using Annexin V-FITC and propidium iodide staining by flow cytometry (reference value: 96.26 %); type: functional; conditions: HepG2, 24 h, read-out: Activity
HepG2 [18] = assay: Induction of apoptosis in human HepG2 cells assessed as viable cells at 2 uM after 24 hrs using Annexin V-FITC and propidium iodide staining by flow cytometry (reference value: 96.26 %); type: functional; conditions: HepG2, 24 h, read-out: Activity
HepG2 [19] = assay: Induction of apoptosis in human HepG2 cells assessed as necrotic cells at 1 uM after 24 hrs using Annexin V-FITC and propidium iodide staining by flow cytometry (reference value: 2.82 %); type: functional
HepG2 [20] = assay: Induction of apoptosis in human HepG2 cells assessed as early apoptotic cells at 1 uM after 24 hrs using Annexin V-FITC and propidium iodide staining by flow cytometry (reference value: 0.02 %); type: functional
HepG2 [21] = assay: Induction of apoptosis in human HepG2 cells assessed as cleaved caspase 3 level at 0.74 to 20 […] uM by Western blotting; type: functional, cell-based
Focal adhesion kinase 1 [22] = target: T1, Focal adhesion kinase 1; assay: Inhibition of FAK in human HepG2 cells at 2.22 to 20 uM by Western blot analysis; type: cell-based
Target sequence in this assay (Q05397 2-1052 limits assumed): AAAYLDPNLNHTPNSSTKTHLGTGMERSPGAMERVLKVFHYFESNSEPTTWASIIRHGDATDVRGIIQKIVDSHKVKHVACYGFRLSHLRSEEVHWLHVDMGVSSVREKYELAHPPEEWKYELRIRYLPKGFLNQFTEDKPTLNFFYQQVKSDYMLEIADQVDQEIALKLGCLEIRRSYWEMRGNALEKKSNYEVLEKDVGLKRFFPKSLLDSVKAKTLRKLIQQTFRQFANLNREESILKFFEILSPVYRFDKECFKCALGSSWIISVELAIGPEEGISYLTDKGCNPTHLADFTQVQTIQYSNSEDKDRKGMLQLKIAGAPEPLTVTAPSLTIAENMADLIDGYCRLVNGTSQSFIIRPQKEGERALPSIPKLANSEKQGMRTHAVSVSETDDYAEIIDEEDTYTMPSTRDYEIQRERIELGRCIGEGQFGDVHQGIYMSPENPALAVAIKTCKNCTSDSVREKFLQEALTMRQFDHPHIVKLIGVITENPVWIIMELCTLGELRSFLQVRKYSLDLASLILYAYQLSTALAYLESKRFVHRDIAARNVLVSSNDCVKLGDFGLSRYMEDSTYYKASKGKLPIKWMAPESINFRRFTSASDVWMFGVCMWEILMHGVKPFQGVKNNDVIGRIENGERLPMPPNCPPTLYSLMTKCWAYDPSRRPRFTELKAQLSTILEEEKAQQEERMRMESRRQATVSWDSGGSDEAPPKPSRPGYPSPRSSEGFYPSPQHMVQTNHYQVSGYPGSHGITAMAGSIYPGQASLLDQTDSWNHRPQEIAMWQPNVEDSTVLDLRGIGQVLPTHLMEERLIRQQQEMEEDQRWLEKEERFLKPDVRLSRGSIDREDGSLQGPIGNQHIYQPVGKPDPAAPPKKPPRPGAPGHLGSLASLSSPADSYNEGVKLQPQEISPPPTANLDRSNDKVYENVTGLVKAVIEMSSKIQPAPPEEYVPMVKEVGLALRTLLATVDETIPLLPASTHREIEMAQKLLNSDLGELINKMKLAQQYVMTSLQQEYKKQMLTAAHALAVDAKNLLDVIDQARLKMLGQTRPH

## O=C(Cc1cccc(Cl)c1)Nc1nnc(-c2ccc3c(c2)OCCO3)s1
HeLa
  EC50: 34.9 µg/mL (≈ 89.9 µM)
BGC-823
  EC50: > 100 µg/mL
[1]
  EC50: 47.6 µg/mL (≈ 123 µM)
Focal adhesion kinase 1 [2]
  pEC50: 4.33
HepG2 [3]
  EC50: 18.4 µg/mL (≈ 47.5 µM)

## O=C(Cc1ccc(F)cc1)Nc1nnc(-c2ccc3c(c2)OCCO3)s1
HeLa
  EC50: > 100 µg/mL
BGC-823
  EC50: > 100 µg/mL
[1]
  EC50: > 100 µg/mL
Focal adhesion kinase 1 [2]
  pEC50: 4.29
HepG2 [3]
  EC50: 23.8 µg/mL (≈ 64 µM)

## O=C(Nc1nnc(-c2ccc3c(c2)OCCO3)s1)c1ccncc1
HeLa
  EC50: > 100 µg/mL
BGC-823
  EC50: 41 µg/mL (≈ 121 µM)
[1]
  EC50: > 100 µg/mL
HepG2 [3]
  EC50: > 100 µg/mL

## Nc1ccc(C(=O)Nc2nnc(-c3ccc4c(c3)OCCO4)s2)cc1
HeLa
  EC50: > 100 µg/mL
BGC-823
  EC50: > 100 µg/mL
[1]
  EC50: 41.2 µg/mL (≈ 116 µM)
HepG2 [3]
  EC50: > 100 µg/mL

## O=C(Cc1ccc(Cl)cc1)Nc1nnc(-c2ccc3c(c2)OCCO3)s1
HeLa
  EC50: 26.8 µg/mL (≈ 69 µM)
BGC-823
  EC50: > 100 µg/mL
[1]
  EC50: 40.7 µg/mL (≈ 105 µM)
Focal adhesion kinase 1 [2]
  pEC50: 4.50
HepG2 [3]
  EC50: 13.8 µg/mL (≈ 35.5 µM)

## CC(=O)c1ccc(CC(=O)Nc2nnc(-c3ccc4c(c3)OCCO4)s2)cc1
HeLa
  EC50: > 100 µg/mL
BGC-823
  EC50: > 100 µg/mL
[1]
  EC50: > 100 µg/mL
HepG2 [3]
  EC50: > 100 µg/mL

## Cc1ccc(C(=O)Nc2nnc(-c3ccc4c(c3)OCCO4)s2)cn1
HeLa
  EC50: > 100 µg/mL
BGC-823
  EC50: > 100 µg/mL
[1]
  EC50: > 100 µg/mL
HepG2 [3]
  EC50: > 100 µg/mL

## Cc1ccccc1C(=O)Nc1nnc(-c2ccc3c(c2)OCCO3)s1
HeLa
  EC50: > 100 µg/mL
BGC-823
  EC50: > 100 µg/mL
[1]
  EC50: > 100 µg/mL
HepG2 [3]
  EC50: > 100 µg/mL

## O=C(Cc1ccc(Br)cc1)Nc1nnc(-c2ccc3c(c2)OCCO3)s1
HeLa
  EC50: 51.2 µg/mL (≈ 118 µM)
BGC-823
  EC50: > 100 µg/mL
[1]
  EC50: > 100 µg/mL
Focal adhesion kinase 1 [2]
  pEC50: 4.26
HepG2 [3]
  EC50: 42.1 µg/mL (≈ 97.5 µM)

## O=C(/C=C/c1ccccc1)Nc1nnc(-c2ccc3c(c2)OCCO3)s1
HepG2 [4]
  Activity: 11%
HepG2 [5]
  Activity: 0.8%
HeLa
  EC50: > 100 µg/mL
BGC-823
  EC50: 45.4 µg/mL (≈ 124 µM)
HepG2 [6]
  Activity: 32.8%
HepG2 [7]
  Activity: 13.17%
HepG2 [8]
  Activity: 23.25%
HepG2 [9]
  Activity: 4.03%
HepG2 [10]
  viability at 4 µM: 39.5%
HepG2 [11]
  Activity: 18%
HepG2 [12]
  Activity: 8%
HepG2 [13]
  viability at 1 µM: 58.9%
[1]
  EC50: 60.2 µg/mL (≈ 165 µM)
HepG2 [14]
  Activity: Active
HepG2 [15]
  Activity: 26.23%
HepG2 [16]
  Activity: 27.21%
HepG2 [17]
  viability at 0.5 µM: 58.3%
HepG2 [18]
  viability at 2 µM: 50.8%
Focal adhesion kinase 1 [2]
  pEC50: 4.53
HepG2 [19]
  Activity: 24.49%
HepG2 [20]
  Activity: 3.49%
HepG2 [21]
  Activity: Active
Focal adhesion kinase 1 [22]
  inhibition: Active
HepG2 [3]
  EC50: 10.3 µg/mL (≈ 28.1 µM)

## O=C(Nc1nnc(-c2ccc3c(c2)OCCO3)s1)c1ccccn1
HeLa
  EC50: > 100 µg/mL
BGC-823
  EC50: 35.8 µg/mL (≈ 105 µM)
[1]
  EC50: > 100 µg/mL
HepG2 [3]
  EC50: > 100 µg/mL

## O=c1[nH]cc(F)c(=O)[nH]1 [FLUOROURACIL]
HeLa
  EC50: 31 µg/mL (≈ 238 µM)
BGC-823
  EC50: 17.4 µg/mL (≈ 134 µM)
[1]
  EC50: 28.5 µg/mL (≈ 219 µM)
HepG2 [3]
  EC50: 23.3 µg/mL (≈ 179 µM)

## O=C(Nc1nnc(-c2ccc3c(c2)OCCO3)s1)c1ccc(Cl)nc1
HeLa
  EC50: > 100 µg/mL
BGC-823
  EC50: > 100 µg/mL
[1]
  EC50: 30.3 µg/mL (≈ 81 µM)
Focal adhesion kinase 1 [2]
  pEC50: 4.44
HepG2 [3]
  EC50: 15.3 µg/mL (≈ 41 µM)

## COc1cccc(CC(=O)Nc2nnc(-c3ccc4c(c3)OCCO4)s2)c1
HeLa
  EC50: > 100 µg/mL
BGC-823
  EC50: > 100 µg/mL
[1]
  EC50: > 100 µg/mL
HepG2 [3]
  EC50: > 100 µg/mL

## O=C(Cc1ccccc1)Nc1nnc(-c2ccc3c(c2)OCCO3)s1
HeLa
  EC50: 49.9 µg/mL (≈ 141 µM)
BGC-823
  EC50: 27.4 µg/mL (≈ 77.5 µM)
[1]
  EC50: 51.3 µg/mL (≈ 145 µM)
Focal adhesion kinase 1 [2]
  pEC50: 4.30
HepG2 [3]
  EC50: 18.3 µg/mL (≈ 51.7 µM)

## O=C(Cc1ccc2ccccc2c1)Nc1nnc(-c2ccc3c(c2)OCCO3)s1
HeLa
  EC50: > 100 µg/mL
BGC-823
  EC50: 67.9 µg/mL (≈ 168 µM)
[1]
  EC50: 43.6 µg/mL (≈ 108 µM)
HepG2 [3]
  EC50: > 100 µg/mL

## CCOc1ccc(CC(=O)Nc2nnc(-c3ccc4c(c3)OCCO4)s2)cc1OCC
HeLa
  EC50: > 100 µg/mL
BGC-823
  EC50: > 100 µg/mL
[1]
  EC50: > 100 µg/mL
HepG2 [3]
  EC50: > 100 µg/mL

## O=C(Cc1cccc(Br)c1)Nc1nnc(-c2ccc3c(c2)OCCO3)s1
HeLa
  EC50: 54.2 µg/mL (≈ 125 µM)
BGC-823
  EC50: > 100 µg/mL
[1]
  EC50: > 100 µg/mL
Focal adhesion kinase 1 [2]
  pEC50: 4.22
HepG2 [3]
  EC50: 45.8 µg/mL (≈ 106 µM)

## O=C(CCc1ccccc1)Nc1nnc(-c2ccc3c(c2)OCCO3)s1
HeLa
  EC50: 32.5 µg/mL (≈ 88.3 µM)
BGC-823
  EC50: 14.2 µg/mL (≈ 38.7 µM)
[1]
  EC50: 16.2 µg/mL (≈ 44 µM)
Focal adhesion kinase 1 [2]
  pEC50: 4.42
HepG2 [3]
  EC50: 15.3 µg/mL (≈ 41.7 µM)

## O=C(Nc1nnc(-c2ccc3c(c2)OCCO3)s1)c1ccccc1
HeLa
  EC50: > 100 µg/mL
BGC-823
  EC50: 46.1 µg/mL (≈ 136 µM)
[1]
  EC50: 67.6 µg/mL (≈ 199 µM)
Focal adhesion kinase 1 [2]
  pEC50: 4.21
HepG2 [3]
  EC50: 34.8 µg/mL (≈ 102 µM)
